# Source: US20230102192A1, “THERAPIES FOR THE TREATMENT OF DISEASES AND DISORDERS ASSOCIATED WITH ABNORMAL EXPRESSION OF A NEURAL-ASSOCIATED GENE” (The Regents of the University of California, priority 2020, published 2023)
# Tests used:
# MECP2-KO neurons [1] = test: Co-localized pre/postsynaptic puncta quantification in neurons; assay type: cell-based, human; conditions: one-month old MECP2-KO neurons treated two weeks
# Description: (§1) Pharmacologic treatment. One-month old cortical organoids were treated for 1 mo with either Nefiracetam (10 μM) or PHA 543613 (10 μM) during media changes.
# Synaptic puncta quantification. Co-localized pre and postsynaptic puncta (Vglut and Homer1 immunostained) along MAP2-positive processes were quantified. Primary antibodies (see above) incubated 2 h, secondary antibodies incubated 1 h, and coverslips were mounted. Slides were analyzed under fluorescence microscopy.
# Pharmacologic screening identifies two compounds that specifically reverse MECP2-KO phenotypes. 14 commercially available pharmacologic compounds with mechanisms of action that counteract the synapse and neurotransmitter pathologies were selected and which are identified in FIG. 5B. […] MECP2-KO and control neurons were treated with each of the 14 compounds and employed a tiered series of assays to identify those that could selectively rescue MECP2-KO pathology without affecting controls. […] The capacity of these compounds to increase pre and post co-localized synaptic puncta in MECP2-KO neurons were evaluated, again eliminating the drugs that affected control neurons (see FIG. 5F-G, and FIG. 6C-D).
# MECP2-KO neurons [2] = test: Calcium imaging of neurons; assay type: cell-based, human; conditions: vs untreated KO
# Description: as §1
# Calcium imaging. Calcium imaging was performed as described in Chailangkarn et al. Briefly, PSC-derived neuronal networks were lentivirally transduced with a Syn::RFP reporter construct. Cultures were washed with Krebs HEPES buffer and incubated with Fluo-4AM (Molecular Probes/Invitrogen, Carlsbad, Calif., USA). A Hamamatsu ORCA-ER digital camera (Hamamatsu Photonics, Japan) with 488 nm filter on an Olympus IX81 inverted fluorescence confocal microscope (Olympus Optical, Tokyo, Japan) acquired 5000 frames at 28 Hz in a 256×256 pixel region (100× magnification). Images were acquired with MetaMorph7.7 (MDS Analytical Technologies, Sunnyvale, Calif., USA) and analyzed with ImageJ and Matlab7.2 (Mathworks, Natick, Mass., USA). Syn::RFP+ neurons were selected following tetrodotoxin blockade of calcium transients. A 95th-percentile threshold of amplitude for calcium spikes was set for event detection; signal amplitude is presented as fluorescence change (ΔF/F) following background subtraction.
# [3] = large Carbamoylcholine metabolite; cited from earlier work
Compound,synaptogenesis / co-localized synaptic puncta (MECP2-KO neurons [1]),frequency of calcium oscillations (MECP2-KO neurons [2]),percentage of active neurons (MECP2-KO neurons [2]),gastrointestinal absorption [3],traversal of the blood-brain barrier [3]
CC(=O)NCCCS(=O)(=O)O [Acamprosate],specifically increased synaptogenesis,increases,increases,–,–
C[N+](C)(C)CCOC(N)=O [Carbamoylcholine],–,–,–,limited gastrointestinal absorption,cannot traverse the blood-brain barrier
